Here are results for one sequence from article PMC4104761, “Identification of a novel lytic peptide for the treatment of solid tumours” (Genes & Cancer, 2014).

For series [1], the system named is 4T1 murine mammary carcinoma cells. The experiment in a line: Time-lapse confocal microscopy. The format is cell-based. Conditions: 20 µg Cypep-1/ml for 3 hours; strongest effect between 40 and 55 min. As to the method: 30.000 cells of the murine mammary carcinoma cell line 4T1 were seeded into a sterile 24 well dish (Nunc™, Roskilde, Denmark). After 24 hours, the monolayer culture was treated with 20µg Cypep-1/ml, followed by immediate observation of the cells at 37°C and 5% CO2 for a period of 3 hours by means of time-lapse confocal microscopy, using a Zeiss LSM510 Meta System (Carl Zeiss AG, Jena, Germany), equipped with both bright field optics and red fluorescence optics at 595nm. The same experiment was repeated as described above with 4T1 cells that had previously been stably transfected with red fluorescent protein, using a dsRed-expressing lentiviral vector pWPXL-dsRED as previously described by Niclou et al..

Series [2] has as its system 4T1 murine mammary carcinoma allografts. The series is described as follows: Treatment of subcutaneous 4T1 murine breast cancer allografts. The format is in vivo, BALB/c mice. On the procedure:
10^6 4T1 murine metastatic breast cancer cells were grafted subcutaneously under Isofluran anaesthesia into the right upper quadrant of the back of 20 female BALB/c mice (average age 126,25 days; average weight 23.8g). At day 12, when the tumours of both groups had reached a tumour volume of 0.12cm^3 in average, 10 female mice (average weight 23.9 g) received a single intra-tumoural injection of 1200 µg of Cypep-1 dissolved in 300 µl 0.9% NaCl, whereas an equal injection volume of 0.9% NaCl was administered to the 10 animals of the control group (average weight 23.7 g). All injections were performed under isofluoran gas anaesthesia. The animals were then observed for signs of distress as described above. 24 hours after the injections, two animals (one assigned to the control and one of the treatment group) were sacrificed for histological analysis. The harvested tumours were immediately fixed in 4% buffered formaldehyde and embedded in paraffin, cut into 5 µm sections and stained with H&E.
In the remaining 18 experimental animals, the tumour size was measured at regular intervals (every 4th day) until day 24 post tumour grafting. All mice were monitored daily for signs of distress and pain. Those that became sick were euthanized humanely. All animal procedures described were in accordance with protocols approved by The National Animal Research Authority (Oslo, Norway).

In series [3] the test system is HOB normal human osteoblasts. The experiment in a line: MTT viability assay. The conditions noted are these: 20 µg Cypep-1/ml, 60 min incubation. The format is cell-based. On the procedure: (§1) Cypep-1 was tested in various concentrations on a total of 17 cell lines, which included 13 human and 1 murine tumour cell line(s), as well as 3 normal human cell lines. Listed in detail: 4 human osteosarcoma (U2OS, SaOS2, HOS and MNNG-HOS), 6 human glioblastoma (A172, GaMg, LN18, U87, U373 and T98G) and 3 human mammary carcinoma cell lines (MCF7, AU565 and MDA-MB-468) as well as an additional murine mammary carcinoma cell line (4T1). Furthermore, 3 normal human cell lines were included: 2 normal human fibroblast cell lines (HFF1 and 142Br) as well as normal human osteoblasts (HOB).
(§2) All normal human cell lines were purchased from Promo Cell (Heidelberg, Germany). While the normal human foreskin fibroblasts (HFF1) were grown in DMEM medium as described above, the additional human skin fibroblast cell line (142Br) and the normal human osteoblasts (HOB) were cultured in purchased cell type specific growth mediums (Promo Cell, Heidelberg, Germany).
(§3) MTT proliferation assays were performed on all cell lines (with the exception of 142Br (human skin fibroblasts)), using monolayers of 15 000 cells in sterile 96 well tissue culture plates (Nunc™, Roskilde, Denmark), respectively. […]
For orientation: Formazan colour is commonly taken as a measure of viable cells.

Series [4] deals with HFF1 normal human foreskin fibroblasts. The experiment in a line: MTT viability assay. The format is cell-based. Conditions: 20 µg Cypep-1/ml, 60 min incubation. As to the method:
as §1, §2, §3

Series [5] deals with osteosarcoma cell lines (U2OS, SaOs2). The series is described as follows: LIVE/DEAD Viability/Cytotoxicity assay. The format is cell-based, human. The conditions noted are these: morphometric evaluation (Calcein), 35 µg Cypep-1/ml, 3 hours. As to the method:
In order to visualise and quantify the cytotoxic action of Cypep-1 simultaneously, the LIVE/DEAD® Viability/Cytotoxicity Kit was employed according to the manufacturers instructions on monolayers of 30 000 cells in sterile 24 multi well dishes (Nunc™, Roskilde, Denmark), using the selected human osteosarcoma cell lines U2OS and SaOs2 as well as the two human fibroblast cell lines HFF1 (foreskin) and 142Br (skin).
The monolayer cultures were incubated with Cypep-1 for a period of 3 hours in concentrations ranging from 2.5 µg to 35 µg/ml. The cells were observed using an inverted fluorescence microscope (Nikon Eclipse 2000E, Tokyo, Japan) equipped with FITC (green fluorescence) and TRITC (red fluorescence) filter optics. The fluorescent cells were then photographed at a 10x magnification. The proportions of viable cells (live cells showing green fluorescence due to the presence of Calcein) and dead cells (red fluorescent due to the membrane penetration of Ethidium-Homodimer-1) were quantified using a Lucia G Morphometry System, Version 4.71 (Laboratory Imaging, Prague, Czech Republic).

With YGRKKRRQRRRGKTLRVAKAIYKRYIE [Cypep-1], the “membrane disruption by time-lapse confocal microscopy” value in series [1] is on record as “extensive loss of cell content into the medium”. Besides, the “histological analysis of tumours” value in series [2] (24 hours after intra-tumoural administration of 1200 µg, H&E) is listed as “extensive areas of necrosis”. Also, the “average tumour volume at day 24” value in series [2] (single intra-tumoural injection of 1200 µg at day 12, control 3.5 cm^3, P<0.0001) is 1.1 cm^3. Further, the median survival in series [2] (single intra-tumoural injection of 1200 µg at day 12, control 20 days, P<0.0011) was 32 days. In series [2] (single intra-tumoural injection of 1200 µg in 300µl 0.9% NaCl, BALB/c mice), the “signs of discomfort, pain or toxicity after intratumoural injection” value is on record as “None of the animals showed any signs of discomfort, pain or toxicity”. The survival rate in series [3] is listed as 44%; in series [4] it was 66%. Further, in series [5], the average surviving fraction result was “lower than 5%”.
